Laboratory results from patent publication US11090304B2 (Amgen Inc., priority 2018, dated 2021).
Like-named read-outs stand apart in the source and are kept apart here.

Assays:
[1] = tested on: Phosphorylation of ERK1/2 in MIA PaCa-2 cells; assay: Phospho-ERK1/2 MSD assay in MIA PaCa-2 cells; format: cell-based; conditions: Homo sapiens
Outline: (§1)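 MIA PaCa-2 or A549 cells were treated with a compound dose-response titration for 2 or 4 h at 37 °C, then stimulated with 10 ng/mL EGF for 10 min. Phospho-ERK1/2 in RIPA lysates was measured by MSD whole-cell lysate immunoassay, and IC50 came from a 4-parameter logistic fit.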

[2] = molecular target: GDP-bound KRAS protein (aa 1-169), containing both G12C and C118A amino acid substitutions (Homo sapiens, UniProt P01116, C118A/G12C); assay: Coupled nucleotide exchange assay (SOS-mediated, AlphaScreen); format: biochemical; conditions: for Coupled exchange IC50 (2 h): 2 h compound pre-incubation
[3] = tested on: Phosphorylation of ERK1/2 in A549 cells; assay: Phospho-ERK1/2 MSD assay in A549 cells; format: cell-based; conditions: Homo sapiens
Outline: as §1

[4] = MIA PaCa-2, 2 h, read-out: p-ERK IC50 (2 h; MIA PaCa-2), 2 h compound treatment
[5] = MIA PaCa-2, 4 h, read-out: p-ERK IC50 (4 h; MIA PaCa-2), 4 h compound treatment
[6] = A549, 2 h, read-out: p-ERK IC50 (2 h; A549), 2 h compound treatment
[7] = A549, 4 h, read-out: p-ERK IC50 (4 h; A549), 4 h compound treatment

GDP-bound KRAS protein (aa 1-169), containing both G12C and C118A amino acid substitutions, sequence (P01116 1-169 isoform P01116-2 G12C/C118A): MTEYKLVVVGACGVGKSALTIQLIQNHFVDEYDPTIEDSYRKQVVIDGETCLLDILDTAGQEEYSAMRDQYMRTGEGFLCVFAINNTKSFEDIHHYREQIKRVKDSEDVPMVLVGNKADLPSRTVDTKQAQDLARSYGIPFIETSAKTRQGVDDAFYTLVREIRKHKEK

Structure (SMILES)	IC50 [1, 4] [nM]	IC50 [1, 5] [nM]	Coupled exchange IC50 (5 min) ([2]; 5 min compound pre-incubation)	Coupled exchange IC50 (2 h) [2]	IC50 [3, 6] [nM]	IC50 [3, 7] [nM]	IC50 ([2]; read-out: Coupled exchange IC50 (5 min), 5 min compound pre-incubation) [nM]
C=CC(=O)N1CCN(c2nc(=O)n(-c3c(CC)cccc3CC)c3nc(-c4c(F)cccc4F)c(Cl)cc23)[C@@H](C)C1 [Example 54-65, 6-chloro-1-(2,6-diethylphenyl)-7-(2,6-difluorophenyl)-4-((2S)-2-methyl-4-(2-propenoyl)-1-piperazinyl) pyrido[2,3-d]pyrimidin-2(1H)-one]	140	133	0.253 µM	54 nM	≥ 10000	≥ 100000	
C=CC(=O)N1CCN(c2nc(=O)n(-c3c(C)cccc3C)c3nc(-c4c(O)cccc4F)c(Cl)cc23)[C@@H](C)C1 [Example 54-69, 6-chloro-1-(2,6-dimethylphenyl)-7-(2-fluoro-6-hydroxyphenyl)-4-((2S)-2-methyl-4-(2-propenoyl)-1-piperazinyl) pyrido[2,3-d]pyrimidin-2(1H)-one]	199				≥ 10000		306
C=CC(=O)N1CCN(c2nc(=O)n(-c3ccccc3C(C)C)c3nc(-c4cc(O)ccc4Br)c(Cl)cc23)[C@@H](C)C1 [Example 54-87, 7-(2-bromo-5-hydroxyphenyl)-6-chloro-4-((2S)-2-methyl-4-(2-propenoyl)-1-piperazinyl)-1-(2-(2-propanyl)phenyl)pyrido [2,3-d]pyrimidin-2(1H)-one]	66		0.109 | nda μM		≥ 10000		
C=CC(=O)N1CCN(c2nc(=O)n(-c3ccccc3C(C)C)c3nc(-c4cc(O)ccc4F)c(Cl)cc23)[C@@H](C)C1 [Example 54-88, 6-chloro-7-(2-fluoro-5-hydroxyphenyl)-4-((2S)-2-methyl-4-(2-propenoyl)-1-piperazinyl)-1-(2-(2-propanyl)phenyl)pyrido [2,3-d]pyrimidin-2(1H)-one]	101		0.139 | nda μM		≥ 10000		
C=CC(=O)N1CCN(c2nc(=O)n(-c3c(CC)cccc3CC)c3nc(-c4ccccc4F)c(Cl)cc23)[C@@H](C(=O)OC)C1 [Example 55-30, methyl (2R)-1-(6-chloro-1-(2,6-diethylphenyl)-7-(2-fluorophenyl)-2-oxo-1,2-dihydropyrido[2,3-d]pyrimidin-4-yl)-4-(2-propenoyl)-2-piperazinecarboxylate]	1610		1.95 | nda μM		≥ 10000		
C=CC(=O)N1CCN(c2nc(=O)n(-c3ccccc3C(C)C)c3nc(-c4ccccc4F)c(F)cc23)[C@@H](C)C1 [Example 57-7, 6-fluoro-7-(2-fluorophenyl)-4-((2S)-2-methyl-4-(2-propenoyl)-1-piperazinyl)-1-(2-(2-propanyl)phenyl)pyrido[2,3-d]pyrimidin-2(1H)-one]	450		0.991 | nda μM		≥ 10000		

The next lines start with results.

IC50 [1, 4] [nM]	IC50 [1, 5] [nM]	Coupled exchange IC50 (5 min) ([2]; 5 min compound pre-incubation)	Coupled exchange IC50 (2 h) [2]	IC50 [3, 6] [nM]	IC50 [3, 7] [nM]	Structure (SMILES)	IC50 ([2]; read-out: Coupled exchange IC50 (5 min), 5 min compound pre-incubation) [nM]
657	552	1.02 µM	101 nM	≥ 100000	65000	C=CC(=O)N1CCN(c2nc(=O)n(CC3(C(F)(F)F)CC3)c3nc(-c4c(O)cccc4F)c(Cl)cc23)CC1 [Example 60-3, 6-chloro-7-(2-fluoro-6-hydroxyphenyl)-4-(4-(2-propenoyl)-1-piperazinyl)-1-((1-(trifluoromethyl)cyclopropyl)methyl)pyrido[2,3-d]pyrimidin-2(1H)-one]	
492	447	0.589 µM	102 nM	52400	60500	C=CC(=O)N1CCN(c2nc(=O)n(CC(C)(C)C)c3nc(-c4c(O)cccc4F)c(Cl)cc23)CC1 [Example 60-5, 6-chloro-1-(2,2-dimethylpropyl)-7-(2-fluoro-6-hydroxyphenyl)-4-(4-(2-propenoyl)-1-piperazinyl)pyrido[2,3-d]pyrimidin-2(1H)-one]	
	1040	1.85 µM	161 nM		67700	C=CC(=O)N1CCN(c2nc(=O)n(CC(C)(C)C)c3nc(-c4ccccc4F)c(Cl)cc23)CC1 [Example 60-6]	
72		0.173 | nda μM		≥ 10000		C=CC(=O)N1CCN(c2nc(=O)n(-c3nccnc3C3CC3)c3nc(-c4c(O)cccc4F)c(Cl)cc23)[C@@H](C)C1 [Example 60-8, 6-chloro-1-(3-cyclopropyl-2-pyrazinyl)-7-(2-fluoro-6-hydroxyphenyl)-4-((2S)-2-methyl-4-(2-propenoyl)-1-piperazinyl)pyrido[2,3-d]pyrimidin-2(1H)-one]	
63		0.08 | nda μM		≥ 10000		C=CC(=O)N1CCN(c2nc(=O)n(-c3c(C4CC4)ncnc3C3CC3)c3nc(-c4ccccc4F)c(Cl)cc23)[C@@H](C)C1 [Example 60-11, 6-chloro-1-(4,6-dicyclopropyl-5-pyrimidinyl)-7-(2-fluorophenyl)-4-((2S)-2-methyl-4-(2-propenoyl)-1-piperazinyl)pyrido[2,3-d]pyrimidin-2(1H)-one]	
946		2.24 | nda μM		≥ 10000		C=CC(=O)N1CCN(c2nc(=O)n(-c3ccccc3C)c3nc(-c4ccccc4F)c(Cl)cc23)[C@@H](C)C1 [Example 60-14, 6-chloro-7-(2-fluorophenyl)-1-(2-methylphenyl)-4-((2S)-2-methyl-4-(2-propenoyl)-1-piperazinyl)pyrido[2,3-d]pyrimidin-2(1H)-one]	
492		0.686 | nda μM		≥ 10000		C=CC(=O)N1CCN(c2nc(=O)n(-c3ccccc3C)c3nc(-c4c(O)cccc4F)c(Cl)cc23)[C@@H](C)C1 [Example 60-15, 6-chloro-7-(2-fluoro-6-hydroxyphenyl)-1-(2-methylphenyl)-4-((2S)-2-methyl-4-(2-propenoyl)-1-piperazinyl)pyrido[2,3-d]pyrimidin-2(1H)-one]	
387		0.809 | nda μM		≥ 10000		C=CC(=O)N1CCN(c2nc(=O)n(-c3ccccc3C(C)C)c3nc(-c4cc(OC)ccc4Br)c(Cl)cc23)[C@@H](C)C1 [Example 60-26, 7-(2-bromo-5-methoxyphenyl)-6-chloro-4-((2S)-2-methyl-4-(2-propenoyl)-1-piperazinyl)-1-(2-(2-propanyl)phenyl)pyrido[2,3-d]pyrimidin-2(1H)-one]	
1000	710	0.919 µM	115 nM	40900	86600	C=CC(=O)N1CCN(c2nc(=O)n(C(C(C)C)C(C)C)c3nc(-c4ccccc4F)c(Cl)cc23)CC1 [Example 60-31, 6-chloro-1-(2,4-dimethyl-3-pentanyl)-7-(2-fluorophenyl)-4-(4-(2-propenoyl)-1-piperazinyl)pyrido[2,3-d]pyrimidin-2(1H)-one]	
221	213	0.392 µM	157 nM	87400	63900	C=CC(=O)N1CCN(c2nc(=O)n(C(CC)CC)c3nc(-c4c(C)ccc5[nH]ncc45)c(Cl)cc23)[C@@H](C)C1 [Example 60-32, 6-chloro-7-(5-methyl-1H-indazol-4-yl)-4-((2S)-2-methyl-4-(2-propenoyl)-1-piperazinyl)-1-(3-pentanyl)pyrido[2,3-d]pyrimidin-2(1H)-one]	
1700		1.24 µM	139 nM	≥ 100000		C=CC(=O)N1CCN(c2nc(=O)n(CC(C)(C)C(F)(F)F)c3nc(-c4ccccc4F)c(Cl)cc23)[C@@H](C)C1 [Example 60-33, 6-chloro-7-(2-fluorophenyl)-4-((2S)-2-methyl-4-(2-propenoyl)-1-piperazinyl)-1-(3,3,3-trifluoro-2,2-dimethylpropyl)pyrido[2,3-d]pyrimidin-2(1H)-one]	
508		0.478 | nda μM		≥ 10000		C=CC(=O)N1CCN(c2nc(=O)n(CC(C)(C)C(F)(F)F)c3nc(-c4c(C)ccc5[nH]ncc45)c(Cl)cc23)[C@@H](C)C1 [Example 60-34, 6-chloro-7-(5-methyl-1H-indazol-4-yl)-4-((2S)-2-methyl-4-(2-propenoyl)-1-piperazinyl)-1-(3,3,3-trifluoro-2,2-dimethylpropyl)pyrido[2,3-d]pyrimidin-2(1H)-one]	
2480	992		nda | 0.776 μM	≥ 100000	≥ 11100	C=CC(=O)N1CCN(c2nc(=O)n(-c3ccccc3C(C)C)c3nc(Cl)c(Cl)cc23)[C@@H](C)C1 [Example 61-1, 6,7-Dichloro-4-((2S)-2-methyl-4-(2-propenoyl)-1-piperazinyl)-1-(2-(2-propanyl)phenyl)pyrido[2,3-d]pyrimidin-2(1H)-one]	
845		0.147 | nda μM		≥ 10000		C=CC(=O)N1CCN(c2nc(=O)n(-c3ccncc3C3CC3)c3cc(-c4c(O)cccc4F)c(Cl)cc23)[C@@H](C)C1 [Example 62-3, 6-chloro-1-(3 cyclopropyl-4-pyridinyl)-7-(2-fluoro-6-hydroxyphenyl)-4-((2S)-2-methyl-4-(2-propenoyl)-1-piperazinyl)-2(1H)-quinazolinone]	
